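How tested: cells in 96-well plates exposed to compound for 48 hours at five concentrations. TGI denotes the concentration required for complete inhibition of growth.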
Tests used:
Test in all cases: DTP human tumour cell line panel, 48 h
OVCAR-5 ovarian = tested on: OVCAR-5 ovarian
OVCAR-4 ovarian = tested on: OVCAR-4 ovarian
SNB-78 CNS = tested on: SNB-78 CNS
LXFL 529 NSCLC = tested on: LXFL 529 NSCLC
HOP-18 NSCLC = tested on: HOP-18 NSCLC
DLD-1 colon = tested on: DLD-1 colon
KM20L2 colon = tested on: KM20L2 colon
DMS 273 small cell lung = tested on: DMS 273 small cell lung
M19-MEL melanoma = tested on: M19-MEL melanoma

Compound: CC1(C)Oc2ccc3c(=O)c(-c4ccccc4)c(-c4ccccc4)oc3c2C1C(=O)O (configuration not stated)
- TGI (OVCAR-5 ovarian): > 100 µM
- TGI (OVCAR-4 ovarian): > 100 µM

Compound: Cc1cc2nc3c(C#N)c(-c4ccccc4)/c(=C\Nc4ccc(Cl)cc4)c(=O)n3c2cc1C
- TGI (OVCAR-5 ovarian): > 100 µM
- TGI (OVCAR-4 ovarian): > 100 µM

Compound: O=c1c(-c2c(-c3ccccc3)oc3ccc(Cl)cc3c2=O)c(-c2ccccc2)oc2ccc(Cl)cc12
- TGI (OVCAR-5 ovarian): > 100 µM
- TGI (OVCAR-4 ovarian): > 100 µM

Compound: C1=Nc2ccc(cc2)N=Cc2ccccc2OCc2cccc(n2)COc2ccccc21
- TGI (OVCAR-5 ovarian): > 100 µM
- TGI (OVCAR-4 ovarian): > 100 µM

Compound: CC1(C)O[C@H]([C@H](O)c2nnc3ccc(Cl)nn23)[C@@H]([C@H]2COC(C)(C)O2)O1
- TGI (OVCAR-5 ovarian): > 100 µM
- TGI (OVCAR-4 ovarian): > 100 µM

Compound: COc1ccc(C2=Nn3c(nc4sc(C)c(C)c4c3=O)SC2)cc1
- TGI (OVCAR-5 ovarian): > 100 µM
- TGI (OVCAR-4 ovarian): > 100 µM

Compound: NC1OC(COC(=O)c2ccccc2)C(O)C(OC(=O)c2ccccc2)C1OC(=O)c1ccccc1 (configuration not stated)
- TGI (OVCAR-5 ovarian): 48.1 µM
- TGI (OVCAR-4 ovarian): > 100 µM

Compound: c1ccc(CSc2ccccc2CN2CCN(Cc3ccccc3SCc3ccccc3)CCN(Cc3ccccc3SCc3ccccc3)CC2)cc1
- TGI (OVCAR-5 ovarian): 6.04 µM
- TGI (OVCAR-4 ovarian): 3.38 µM

Compound: CCOC(=O)/C(C=Nc1c(C)n(C)n(-c2ccccc2)c1=O)=C(/O)c1ccccc1
- TGI (OVCAR-5 ovarian): > 100 µM
- TGI (OVCAR-4 ovarian): > 100 µM

Compound: CCOC(=O)[C@@H]1OC(c2ccccc2)O[C@H]1C(=O)OCC
- TGI (OVCAR-5 ovarian): > 100 µM
- TGI (OVCAR-4 ovarian): > 100 µM

Compound: CCC(=O)C1(N2CCOCC2)CCN(CCCC(=O)c2ccc(F)cc2)CC1
- TGI (OVCAR-5 ovarian): > 100 µM
- TGI (OVCAR-4 ovarian): > 100 µM

Compound: O=C(Nc1cc2c(=O)[nH]c3ccccc3c2oc1=O)c1cnccn1
- TGI (OVCAR-5 ovarian): > 100 µM
- TGI (OVCAR-4 ovarian): > 100 µM

Compound: Cc1[nH]n(C2=NCCN2)c(=O)c1C
- TGI (OVCAR-5 ovarian): > 100 µM
- TGI (OVCAR-4 ovarian): > 100 µM

Compound: COc1ccc2oc(=Nc3ccccc3)c(C(N)=O)cc2c1
- TGI (OVCAR-5 ovarian): > 100 µM
- TGI (OVCAR-4 ovarian): > 100 µM

Compound: C=C(C)CNC(=S)N(N)c1ccc(OC)cc1
- TGI (OVCAR-5 ovarian): > 100 µM
- TGI (OVCAR-4 ovarian): > 100 µM

Compound: CCOC(=O)C(NC(=O)C(CCCCNP(=O)(OCC)OCC)NC(=O)C(C)NC(C)=O)C(C)C (configuration not stated)
- TGI (OVCAR-5 ovarian): > 100 µM
- TGI (OVCAR-4 ovarian): > 100 µM

Compound: COc1ccc(/C=N/n2c(=O)[nH]c3ccccc3c2=O)cc1
- TGI (OVCAR-5 ovarian): > 100 µM

Compound: O=C(CSc1nnc(Cc2ccccc2)o1)Nc1cccc(Cl)c1
- TGI (SNB-78 CNS): > 100 µM
- TGI (LXFL 529 NSCLC): > 100 µM
- TGI (HOP-18 NSCLC): > 100 µM
- TGI (DLD-1 colon): > 100 µM
- TGI (KM20L2 colon): > 100 µM
- TGI (DMS 273 small cell lung): > 100 µM
- TGI (OVCAR-5 ovarian): > 100 µM
- TGI (M19-MEL melanoma): > 100 µM
- TGI (OVCAR-4 ovarian): > 100 µM

Compound: O=C(Nc1ccc(Cl)cc1)NS(=O)(=O)c1coc2ccccc2c1=O
- TGI (OVCAR-5 ovarian): > 10 µM
- TGI (OVCAR-4 ovarian): > 10 µM

Compound: CCCCOCn1c(=O)[nH]c(=O)c2ccccc21
- TGI (OVCAR-5 ovarian): > 100 µM
- TGI (OVCAR-4 ovarian): > 100 µM

Compound: CCc1n[nH]c(=O)n1N1C(=O)CCC1=O
- TGI (OVCAR-5 ovarian): > 100 µM
- TGI (OVCAR-4 ovarian): > 100 µM

Compound: O=Nc1c(-c2c(O)[nH]c3ccccc23)[nH]c2ccccc12
- TGI (OVCAR-5 ovarian): > 86.4 µM
- TGI (OVCAR-4 ovarian): 34.1 µM

Compound: C=C1[C@H](OC(=O)C(C)C)[C@@H](OC(C)=O)[C@@H](OC(C)=O)C(C)(C)[C@@H]2O[C@H]2[C@@H](C)C(=O)[C@@]2(OC(C)=O)C[C@@](C)(OC(C)=O)[C@H](OC(C)=O)[C@@H]2[C@H]1OC(C)=O
- TGI (OVCAR-5 ovarian): > 100 µM
- TGI (OVCAR-4 ovarian): > 100 µM

Compound: Cc1ccc(-c2cc(-c3ccc(Cl)cc3)nc(/N=C3\C(=O)N(CN4CCOCC4)c4ccccc43)n2)cc1
- TGI (OVCAR-5 ovarian): 67.9 µM
- TGI (OVCAR-4 ovarian): > 100 µM

Compound: CC1=C(C)CC(C#N)(C#N)C(C#N)(C#N)C1
- TGI (OVCAR-5 ovarian): > 10 µM
- TGI (OVCAR-4 ovarian): > 10 µM

Compound: Cc1cc(N)ccc1N=Nc1ccc(S(=O)(=O)CCOS(=O)(=O)O)cc1
- TGI (OVCAR-5 ovarian): 26.4 µM
- TGI (OVCAR-4 ovarian): 29 µM

Compound: Cc1cc(=O)oc2cc(SC(=O)N(C)C)ccc12
- TGI (OVCAR-5 ovarian): > 100 µM
- TGI (OVCAR-4 ovarian): > 100 µM

Compound: O=C(NCCc1ccccc1)[C@H]1CCCC[C@@H]1CCO
- TGI (OVCAR-5 ovarian): > 100 µM
- TGI (OVCAR-4 ovarian): > 100 µM

Compound: Cc1c(C#N)c(N)[nH]c(=S)c1C#N
- TGI (OVCAR-5 ovarian): > 100 µM

Compound: Cc1c(-c2ccccc2)[nH]c2ccc(Cl)cc2c1=O
- TGI (OVCAR-5 ovarian): > 100 µM
- TGI (OVCAR-4 ovarian): 59.7 µM

Compound: C=C[C@]1(O)CCC[C@]2(C)C(=O)CCC12C (some centres not stated)
- TGI (OVCAR-5 ovarian): > 100 µM
- TGI (OVCAR-4 ovarian): > 100 µM

Compound: Nc1ccc(Oc2ccc(C3(c4ccc(Oc5ccc(N)cc5)cc4)C4CC5C6CC7CC5C3C(C7)C6C4)cc2)cc1
- TGI (OVCAR-5 ovarian): > 100 µM
- TGI (OVCAR-4 ovarian): > 100 µM

Compound: O=C(/C=C/c1ccc(O)c(O)c1)OCc1ccccc1
- TGI (OVCAR-5 ovarian): > 100 µM
- TGI (OVCAR-4 ovarian): 79.2 µM

Compound: COc1cccc(C(=O)Nc2c3ccccc3nc3ccccc23)c1OC
- TGI (OVCAR-5 ovarian): > 100 µM
- TGI (OVCAR-4 ovarian): > 100 µM

Compound: CC1=[N+]([O-])C(C)(C)N(N=O)C1(C)C
- TGI (OVCAR-5 ovarian): > 10 µM
- TGI (OVCAR-4 ovarian): > 10 µM

Compound: Oc1cccc(-c2ccc3c4c2O[C@H]2c5[nH]c6ccccc6c5C[C@@]5(O)[C@@H](C3)N(CC3CC3)CC[C@]425)c1
- TGI (OVCAR-5 ovarian): 4.3 µM
- TGI (OVCAR-4 ovarian): 2.96 µM

Compound: N#CC1(C#N)NC(c2cccnc2)C(C#N)(C#N)NC1c1cccnc1 (configuration not stated)
- TGI (OVCAR-5 ovarian): > 100 µM
- TGI (OVCAR-4 ovarian): > 100 µM

Compound: O=C1C=CC(=O)c2c1cc([N+](=O)[O-])c1ccoc21
- TGI (OVCAR-5 ovarian): 35.4 µM
- TGI (OVCAR-4 ovarian): 38.6 µM

Compound: CC1=C(C#N)C23C(=O)c4ccccc4C(O)=C2C(=O)C=CC3(O)N1 (configuration not stated)
- TGI (OVCAR-5 ovarian): 36.3 µM
- TGI (OVCAR-4 ovarian): 4.16 µM

Compound: CC(=O)OCC1OC(n2c(C#N)cc(=O)[nH]c2=O)CC1OC(C)=O (configuration not stated)
- TGI (OVCAR-5 ovarian): > 100 µM
- TGI (OVCAR-4 ovarian): > 100 µM

Compound: C=CCOc1ccc(/C(N=Nc2ccc(C)cc2)=N/NC(=O)c2ccccc2)cc1OC
- TGI (OVCAR-5 ovarian): > 100 µM
- TGI (OVCAR-4 ovarian): > 100 µM
